# Assay results from US8785424B2, “ngCycloartanone derivatives with anticancer activity” (Pierre Fabre Medicament, priority 2009, dated 2014).
# Structures can show the parent of a compound that is named as a salt.
# Test system: proteasome
# Assay: Cellular proteasome inhibition test: accumulation of 4Ub-Luc reporter (luciferase activity) in DLD-1 4Ub-Luc cell line
# Assay type: cell-based, human
# Conditions: DLD-1 4Ub-Luc cells, 8 hours, epoxomicin = 100%
# Protocol: Biological tests were carried out according to protocols described in the following articles: Ausseil F. et al. J. Biomol Screen. 2007, 12, 106-116 and Vandenberghe I. et al. Biochemical Pharmacology 2008, 76, 453-462.
# In order to select novel proteasome inhibitor compounds, it is necessary to indirectly measure the activity of this proteasome within cells. To this end, we constructed a stable cell line, DLD-1 4Ub-Luc, arising from a human colon cancer cell line, which produces a chimeric reporter protein called 4Ub-Luc. This protein is a fusion between a 4-ubiquitin (4Ub) label and luciferase (Luc). This label is capable to direct every proteins that carry it toward the proteasome. The 4Ub-Luc protein is thus efficiently degraded by the proteasome, in contrast to the “wild” non-fused Luc protein. When the DLD-1 4Ub-Luc cell line is treated with a proteasome inhibitor, the fusion protein is much less efficiently degraded and accumulates in the cell. This accumulation is detected by an increase in luciferase activity in the treated extract compared to the extract from untreated cells. The control consists of verifying that the inhibitor has no effect on accumulation of the wild Luc protein produced by the stable DLD-1 RF cell line. For both cell lines and for each product an induction factor is determined for the product tested (or the reference) corresponding to the ratio between the luciferase activities measured in cells treated with this product (or the reference) and cells treated with solvent alone.
# The product's activity is then defined by its relative induction factor, i.e., the ratio of its induction factor (IF % luminescence) to that of the reference molecule epoxomicin (IF=100%; see data presented in the table below).
# Thus, the test established by Pierre-Fabre is a cellular test that has the advantage, compared to a purely enzymatic test, of detecting only products capable of penetrating the cell.
# Two cell lines are used for this test: DLD-1 RF and DLD-1 4Ub-Luc. The culture medium used is as follows: • MEM • 5% fetal calf serum • 5 ml of penicillin-streptomycin • 2.5 ml of FUNGIZONE® (Amphotericin B) • 10 ml of […]
# Day 1: Inoculate white 96-well culture-treated plates (PerkinElmer White ViewPlate, product no. 6005181) with 100 μl of 1·10^5 c/ml cell suspension per well. Incubate for 24 hours so that the cells adhere. On each plate five columns will be inoculated with DLD-1 4Ub-Luc and five others with DLD-1 RF according to diagram 1 below.
# Day 2: Remove the medium by turning the plates upside down on cotton, and then carry out the treatment with the compounds of the invention, with solvent alone or with a reference compound such as epoxomicin. […]
# The columns are paired (examples 2 and 8, 3 and 9, 4 and 10 and 5 and 11) and treated with the same compound. Columns 6 and 7 receive the experimental control, namely 0.1% DMSO in culture medium for wells B, C, D, and E of columns 6 and 7, and the positive control (10^−7 M epoxomicin) in wells F and G.
# After incubation, turn the plate upside down on cotton to empty the wells, rinse with 50 μl of PBS to remove any trace of the cytotoxin tested and then add 50 μl of 5× passive lysis buffer (Promega, product no. E1941) diluted to ⅕ in water. Shake energetically using a plate shaker for 5 to 10 minutes at room temperature before freezing at −20° C.
# Luciferase activity is measured using a Luciferase Assay System 10-Pack kit (Promega, product no. E1501).
# On the day luciferase activity is to be measured, defrost the plates and wait until they have returned to room temperature. The optimal temperature for luciferase activity is 20-25° C.
# Reconstitute the firefly luciferase substrate by defrosting the buffer and then adding 10 ml of buffer to the bottle containing the freeze-dried substrate. Wait until the solution is at room temperature before beginning the assay. […]
# [1] = concentration tested 5 · 10^−6 M
# [2] = concentration tested 5 · 10^−7 M
Compound,relative induction factor (IF % luminescence) versus epoxomicin [1] [%],relative induction factor (IF % luminescence) versus epoxomicin [2] [%],relative induction factor (IF % luminescence) versus epoxomicin (concentration tested 10^−5 M) [%],relative induction factor (IF % luminescence) versus epoxomicin (concentration tested 10^−6 M) [%],"relative induction factor (IF % luminescence) versus epoxomicin (concentration tested 5 · 10^−6 M, hydrochloride) [%]","relative induction factor (IF % luminescence) versus epoxomicin (concentration tested 5 · 10^−7 M, hydrochloride) [%]","relative induction factor (IF % luminescence) versus epoxomicin (concentration tested 10^−5 M, hydrochloride) [%]","relative induction factor (IF % luminescence) versus epoxomicin (concentration tested 10^−6 M, hydrochloride) [%]"
"C=C(C(=O)[C@H](O)[C@@H](C)[C@H]1[C@@H](OC(C)=O)C[C@@]2(C)[C@@H]3CC[C@H]4[C@H](C)C(=O)C=C[C@@]45C[C@@]35CC[C@]12C)[C@@H](C)COC(=O)N1CCN(C)CC1 [Compound 23, 26-N—(N-methylpiperazine)carbamate-22-deacetyl-neoboutomellerone]",7,15,2,69,–,–,–,–
"C=C(C(=O)[C@H](OC(C)=O)[C@@H](C)[C@H]1[C@@H](OC(C)=O)C[C@@]2(C)C3CCC4[C@H](C)C(=O)C=C[C@@]45C[C@@]35CC[C@]12C)[C@@H](C)COP(=O)(O)O (stereo partly drawn) [Compound 89, 26-phosphate-neoboutomellerone]",3,–,40,1,–,–,–,–
"C=C(C(=O)[C@H](OC(C)=O)[C@@H](C)[C@H]1[C@@H](OC(C)=O)C[C@@]2(C)[C@@H]3CC[C@H]4[C@H](C)/C(=N/O)C=C[C@@]45C[C@@]35CC[C@]12C)[C@@H](C)CO [Compound 27, 3-anti-oxime-neoboutomellerone]",103,1,–,1,–,–,–,–
"C=C(C(=O)[C@H](OC(C)=O)[C@@H](C)[C@H]1[C@@H](OC(C)=O)C[C@@]2(C)C3CCC4[C@H](C)C(=O)C=C[C@@]45C[C@@]35CC[C@]12C)[C@@H](C)COC(=O)CCl (stereo partly drawn) [Compound 49, 26-chloro-acetate-neoboutomellerone Derivative]",44,–,15,19,–,–,–,–
"C=C(C(=O)[C@H](O)[C@@H](C)[C@H]1[C@@H](OC(C)=O)C[C@@]2(C)C3CCC4[C@H](C)C(=O)C=C[C@@]45C[C@@]35CC[C@]12C)[C@@H](C)COC(=O)CNC(=O)OC(C)(C)C (stereo partly drawn) [Compound 58, 22-deacetyl-neoboutomellerone 26-N-Boc-glycinate]",46,–,10,8,–,–,–,–
"C=C(C(=O)[C@H](O)[C@@H](C)[C@H]1[C@@H](OC(C)=O)C[C@@]2(C)[C@@H]3CC[C@H]4[C@H](C)C(=O)C[C@H](O)[C@@]45C[C@@]35CC[C@]12C)[C@@H](C)CO [Compound 15, 1-hydroxy-2-hydro-22-deacetyl-neoboutomellerone]",11,–,74,2,–,–,–,–
"C=C(C(=O)[C@H](OC(C)=O)[C@@H](C)[C@H]1[C@@H](OC(C)=O)C[C@@]2(C)[C@@H]3CC[C@H]4[C@H](C)C(=O)C=C[C@@]45C[C@@]35CC[C@]12C)C(C)C [Compound 8, 26-dehydroxy-neoboutomellerone]",74,–,19,7,–,–,–,–
"C=C(C(=O)[C@H](O)[C@@H](C)[C@H]1[C@@H](OC(C)=O)C[C@@]2(C)[C@@H]3CC[C@H]4[C@H](C)C(=O)C=C[C@@]45C[C@@]35CC[C@]12C)[C@@H](C)COC(=O)N1CCN(C)CC1 [Compound 24, 26-N—(N-methylpiperazine)carbamate-22-deacetyl-neoboutomellerone hydrochloride]",–,–,–,–,5,12,1,70
"C=C(C(=O)[C@H](O)[C@@H](C)[C@H]1[C@@H](OC(C)=O)C[C@@]2(C)[C@@H]3C[C@@H](O)[C@H]4[C@H](C)C(=O)C=C[C@@]45C[C@@]35CC[C@]12C)[C@@H](C)CO [Compound 16, 6-hydroxy-22-deacetyl-neoboutomellerone]",35,–,–,1,–,–,–,–
"C=C(C(=O)[C@H](OC(C)=O)[C@@H](C)[C@H]1[C@@H](OC(C)=O)C[C@@]2(C)[C@@H]3CC[C@H]4[C@H](C)C(=O)C=C[C@@]45C[C@@]35CC[C@]12C)[C@@H](C)COC(C)=O [Compound 18, 26-acetyl-neoboutomellerone]",48,1,–,12,–,–,–,–
"C=C(C(=O)[C@H](OC(C)=O)[C@@H](C)[C@H]1[C@@H](OC(C)=O)C[C@@]2(C)[C@@H]3C[C@@H](O)[C@H]4[C@H](C)C(=O)C=C[C@@]45C[C@@]35CC[C@]12C)[C@@H](C)CO [Compound 6, 6-hydroxy-neoboutomellerone]",31,–,–,5,–,–,–,–
"CC(=O)O[C@H]1C[C@@]2(C)[C@@H]3CC[C@H]4[C@H](C)C(=O)C=C[C@@]45C[C@@]35CC[C@]2(C)[C@H]1[C@H](C)[C@@H](OC(C)=O)C(=O)C=C(C)C [Compound 9, 26-dehydroxy,24,25-dehydro-nor-neoboutomellerone]",34,–,44,1,–,–,–,–
"C=C(C(=O)[C@H](O)[C@@H](C)[C@H]1[C@@H](OC(C)=O)C[C@@]2(C)[C@@H]3CC[C@H]4[C@H](C)C(=O)C=C[C@@]45C[C@@]35CC[C@]12C)[C@@H](C)COC(=O)CCN(CC)CC [Compound 66, 26-deacetyl-neoboutomellerone 26-N-diethyl-β-alaninate]",9,–,2,13,–,–,–,–
"C=C(C(=O)[C@H](OC(C)=O)[C@@H](C)[C@H]1[C@@H](OC(C)=O)C[C@@]2(C)[C@@H]3CC[C@H]4[C@H](C)C(=O)C=C[C@@]45C[C@@]35CC[C@]12C)[C@@H](C)COP(=O)(O)O [Compound 90, 26-phosphate-neoboutomellerone N-methyl Glutamine Salt]",4,–,51,1,–,–,–,–
"C=C(C(=O)[C@H](O)[C@@H](C)[C@H]1[C@@H](OC(C)=O)C[C@@]2(C)[C@@H]3CC[C@H]4[C@H](C)C(=O)CC[C@@]45C[C@@]35CC[C@]12C)[C@@H](C)CO [Compound 14, 1,2-dihydro-22-deacetyl-neoboutomellerone]",10,–,77,1,–,–,–,–
"C=C(C(=O)[C@H](OC(C)=O)[C@@H](C)[C@H]1[C@@H](OC(C)=O)C[C@@]2(C)[C@@H]3CC[C@H]4[C@H](C)C(=O)C=C[C@@]45C[C@@]35CC[C@]12C)[C@@H](C)COC [Compound 19, 26-methoxy-neoboutomellerone]",45,1,–,40,–,–,–,–
